Values joined by “and” are separate entries in the source; they are usually repeats but may differ in a detail not shown here. Identical values can stand only once.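 96-well plates; 48 h exposure; 5 concentrations. Endpoints by linear interpolation between flanking doses. Not reached: highest tested concentration assigned. At the GI50, growth is halved. At the TGI there is no net growth.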
Experiments:
Assay in all cases: NCI tumour cell line growth inhibition, 48 h; in the data active = GI50 below about 0.43 µM; inactive = the rest
786-0 renal = test system: 786-0 renal
A498 renal = test system: A498 renal
A549 NSCLC = test system: A549 NSCLC
ACHN renal = test system: ACHN renal
CAKI-1 renal = test system: CAKI-1 renal
CCRF-CEM leukemia = test system: CCRF-CEM leukemia
COLO 205 colon = test system: COLO 205 colon
DMS 273 small cell lung = test system: DMS 273 small cell lung
EKVX NSCLC = test system: EKVX NSCLC
HCC-2998 colon = test system: HCC-2998 colon
HCT-116 colon = test system: HCT-116 colon
HCT-15 colon = test system: HCT-15 colon
HL-60(TB) leukemia = test system: HL-60(TB) leukemia
HOP-18 NSCLC = test system: HOP-18 NSCLC
HOP-62 NSCLC = test system: HOP-62 NSCLC
HOP-92 NSCLC = test system: HOP-92 NSCLC
HT29 colon = test system: HT29 colon
IGROV1 ovarian = test system: IGROV1 ovarian
K-562 leukemia = test system: K-562 leukemia
KM12 colon = test system: KM12 colon
KM20L2 colon = test system: KM20L2 colon
LOX IMVI melanoma = test system: LOX IMVI melanoma
LXFL 529 NSCLC = test system: LXFL 529 NSCLC
M14 melanoma = test system: M14 melanoma
MALME-3M melanoma = test system: MALME-3M melanoma
MDA-MB-435 = test system: MDA-MB-435
MOLT-4 leukemia = test system: MOLT-4 leukemia
NCI-H226 lung = test system: NCI-H226 lung
NCI-H23 lung = test system: NCI-H23 lung
NCI-H460 lung = test system: NCI-H460 lung
NCI-H522 lung = test system: NCI-H522 lung
OVCAR-3 ovarian = test system: OVCAR-3 ovarian
OVCAR-4 ovarian = test system: OVCAR-4 ovarian
OVCAR-5 ovarian = test system: OVCAR-5 ovarian
OVCAR-8 ovarian = test system: OVCAR-8 ovarian
RPMI-8226 leukemia = test system: RPMI-8226 leukemia
RXF 393 renal = test system: RXF 393 renal
RXF-631 renal = test system: RXF-631 renal
SF-268 CNS = test system: SF-268 CNS
SF-295 CNS = test system: SF-295 CNS
SF-539 CNS = test system: SF-539 CNS
SK-MEL-2 melanoma = test system: SK-MEL-2 melanoma
SK-MEL-28 melanoma = test system: SK-MEL-28 melanoma
SK-MEL-5 melanoma = test system: SK-MEL-5 melanoma
SK-OV-3 ovarian = test system: SK-OV-3 ovarian
SN12C renal = test system: SN12C renal
SNB-19 CNS = test system: SNB-19 CNS
SNB-75 CNS = test system: SNB-75 CNS
SNB-78 CNS = test system: SNB-78 CNS
SR leukemia = test system: SR leukemia
SW-620 colon = test system: SW-620 colon
TK-10 renal = test system: TK-10 renal
U251 CNS = test system: U251 CNS
UACC-257 melanoma = test system: UACC-257 melanoma
UACC-62 melanoma = test system: UACC-62 melanoma
UO-31 renal = test system: UO-31 renal
XF 498 CNS = test system: XF 498 CNS
DLD-1 colon = test system: DLD-1 colon
DMS 114 small cell lung = test system: DMS 114 small cell lung

CC(C)S(=O)(=O)ON1C(=O)c2ccc(N(C)C)cc2C1=O
active: GI50 (CCRF-CEM leukemia) 0.29 µM | GI50 (HL-60(TB) leukemia) 0.417 µM | GI50 (MOLT-4 leukemia) 0.4 µM
29.6 µM: TGI (LOX IMVI melanoma)
8.68 µM and 53.5 µM: TGI (MALME-3M melanoma)
> 60.9 µM: TGI (NCI-H226 lung)
37.3 µM: TGI (NCI-H460 lung)
3.18 µM and 9.78 µM: TGI (SR leukemia)
35.6 µM: TGI (DMS 273 small cell lung)
19.7 µM: TGI (RXF-631 renal)
inactive: GI50 (786-0 renal) 19.5 µM | GI50 (CAKI-1 renal) 13.6 µM | GI50 (COLO 205 colon) 8.36 µM | GI50 (HCT-116 colon) 2.44 µM | GI50 (HOP-92 NSCLC) 28 µM | GI50 (K-562 leukemia) 2.48 µM | GI50 (LOX IMVI melanoma) 9.69 µM | GI50 (MALME-3M melanoma) 20.5 µM | GI50 (NCI-H522 lung) 1.79 µM | GI50 (OVCAR-4 ovarian) 6.01 µM | GI50 (OVCAR-8 ovarian) 5.05 µM | GI50 (RPMI-8226 leukemia) 1.71 µM | GI50 (RXF 393 renal) 5.34 µM | GI50 (SK-MEL-2 melanoma) 19.1 µM | GI50 (SK-MEL-5 melanoma) 15.3 µM | GI50 (SNB-75 CNS) 8.66 µM | GI50 (SR leukemia) 0.752 µM | GI50 (SW-620 colon) 4.01 µM
4.42 µM and 3.85 µM: TGI (NCI-H522 lung)
18 µM: TGI (HCC-2998 colon)
30.3 µM: TGI (U251 CNS)
54.5 µM: TGI (HOP-92 NSCLC)
6.46 µM and 9.12 µM: TGI (RPMI-8226 leukemia)
34.5 µM: TGI (UO-31 renal)
> 63.4 µM: TGI (HOP-62 NSCLC)
25.1 µM: TGI (LXFL 529 NSCLC)
9.13 µM and 30.8 µM: TGI (HCT-116 colon)
40 µM: TGI (M14 melanoma)
> 100 µM: TGI (SNB-19 CNS) | TGI (SNB-78 CNS)
41.2 µM: TGI (KM20L2 colon)
38.8 µM: TGI (UACC-257 melanoma)
33.7 µM: TGI (ACHN renal) | TGI (OVCAR-4 ovarian) | TGI (UACC-62 melanoma)
1.06 µM and 9.21 µM: TGI (CCRF-CEM leukemia)
> 67.1 µM: TGI (SF-295 CNS)
24.5 µM: TGI (OVCAR-3 ovarian)
39.3 µM: TGI (SNB-75 CNS)
> 78.6 µM: TGI (SK-OV-3 ovarian)
37.1 µM: TGI (TK-10 renal)
41.7 µM: TGI (EKVX NSCLC)
38.6 µM: TGI (SW-620 colon)
21.3 µM: TGI (K-562 leukemia)
> 59.2 µM: TGI (NCI-H23 lung)
45 µM: TGI (SK-MEL-2 melanoma)
42 µM: TGI (786-0 renal) | TGI (OVCAR-5 ovarian)
31.4 µM: TGI (SK-MEL-5 melanoma)
> 58 µM: TGI (HT29 colon)
46.4 µM: TGI (KM12 colon)
32.3 µM: TGI (HCT-15 colon) | TGI (XF 498 CNS)
34.3 µM: TGI (SN12C renal)
66.8 µM: TGI (SF-268 CNS)
4.57 µM and > 22.8 µM: TGI (MOLT-4 leukemia)
28.7 µM: TGI (CAKI-1 renal)
6.47 µM and 63.7 µM: TGI (OVCAR-8 ovarian)
17.9 µM: TGI (RXF 393 renal)
43 µM: TGI (IGROV1 ovarian)
4.75 µM: TGI (MDA-MB-435)
21.5 µM: TGI (COLO 205 colon)
37.4 µM: TGI (SF-539 CNS)
27.3 µM: TGI (HOP-18 NSCLC)
> 60.7 µM: TGI (A498 renal)
58 µM: TGI (A549 NSCLC)
56.1 µM: TGI (SK-MEL-28 melanoma)

CCOC(=O)/C=C(\C)c1ccc(Cl)cc1
98.4 µM: TGI (NCI-H226 lung)
> 100 µM: TGI (A498 renal) | TGI (A549 NSCLC) | TGI (ACHN renal) | TGI (CAKI-1 renal) | TGI (CCRF-CEM leukemia) | TGI (COLO 205 colon) | TGI (DLD-1 colon) | TGI (DMS 114 small cell lung) | TGI (DMS 273 small cell lung) | TGI (EKVX NSCLC) | TGI (HCC-2998 colon) | TGI (HCT-116 colon) | TGI (HCT-15 colon) | TGI (HL-60(TB) leukemia) | TGI (HOP-18 NSCLC) | TGI (HOP-92 NSCLC) | TGI (HT29 colon) | TGI (IGROV1 ovarian) | TGI (K-562 leukemia) | TGI (KM12 colon) | TGI (KM20L2 colon) | TGI (LOX IMVI melanoma) | TGI (LXFL 529 NSCLC) | TGI (M14 melanoma) | TGI (MALME-3M melanoma) | TGI (MOLT-4 leukemia) | TGI (NCI-H23 lung) | TGI (NCI-H460 lung) | TGI (OVCAR-4 ovarian) | TGI (OVCAR-5 ovarian) | TGI (OVCAR-8 ovarian) | TGI (RPMI-8226 leukemia) | TGI (RXF 393 renal) | TGI (RXF-631 renal) | TGI (SF-268 CNS) | TGI (SF-295 CNS) | TGI (SF-539 CNS) | TGI (SK-MEL-2 melanoma) | TGI (SK-MEL-28 melanoma) | TGI (SN12C renal) | TGI (SNB-19 CNS) | TGI (SNB-75 CNS) | TGI (SNB-78 CNS) | TGI (SR leukemia) | TGI (SW-620 colon) | TGI (TK-10 renal) | TGI (U251 CNS) | TGI (UACC-257 melanoma) | TGI (UO-31 renal) | TGI (XF 498 CNS)

C=CCN=C1N=C(C)C(C(=O)OCC)S1 (stereo unspecified)
> 100 µM: TGI (786-0 renal) | TGI (A498 renal) | TGI (A549 NSCLC) | TGI (ACHN renal) | TGI (CAKI-1 renal) | TGI (CCRF-CEM leukemia) | TGI (COLO 205 colon) | TGI (DLD-1 colon) | TGI (DMS 114 small cell lung) | TGI (DMS 273 small cell lung) | TGI (EKVX NSCLC) | TGI (HCC-2998 colon) | TGI (HCT-116 colon) | TGI (HCT-15 colon) | TGI (HL-60(TB) leukemia) | TGI (HOP-18 NSCLC) | TGI (HOP-62 NSCLC) | TGI (HOP-92 NSCLC) | TGI (HT29 colon) | TGI (IGROV1 ovarian) | TGI (K-562 leukemia) | TGI (KM12 colon) | TGI (KM20L2 colon) | TGI (LOX IMVI melanoma) | TGI (LXFL 529 NSCLC) | TGI (M14 melanoma) | TGI (MALME-3M melanoma) | TGI (MOLT-4 leukemia) | TGI (NCI-H226 lung) | TGI (NCI-H23 lung) | TGI (NCI-H460 lung) | TGI (NCI-H522 lung) | TGI (OVCAR-3 ovarian) | TGI (OVCAR-4 ovarian) | TGI (OVCAR-5 ovarian) | TGI (OVCAR-8 ovarian) | TGI (RPMI-8226 leukemia) | TGI (RXF 393 renal) | TGI (RXF-631 renal) | TGI (SF-268 CNS) | TGI (SF-295 CNS) | TGI (SF-539 CNS) | TGI (SK-MEL-2 melanoma) | TGI (SK-MEL-28 melanoma) | TGI (SK-MEL-5 melanoma) | TGI (SK-OV-3 ovarian) | TGI (SN12C renal) | TGI (SNB-19 CNS) | TGI (SNB-75 CNS) | TGI (SNB-78 CNS) | TGI (SR leukemia) | TGI (SW-620 colon) | TGI (TK-10 renal) | TGI (U251 CNS) | TGI (UACC-257 melanoma) | TGI (UACC-62 melanoma) | TGI (UO-31 renal) | TGI (XF 498 CNS)

From PubChem BioAssay (NCI)
